Literature values as cited in article PMC9516332 (Frontiers in Oncology, 2022).
Where two headings read alike, the source gives them in different places.

What was measured:
[1] = biological target: panel of 255 wild-type kinases (Homo sapiens, UniProt P23443); conditions: p70S6K, 1 µmol/L single concentration, cited from earlier work
[2] = biological target: T1, panel of 255 wild-type kinases (Homo sapiens, UniProt P54762); conditions: kinase EPHB1, 1 µmol/L single concentration, cited from earlier work
T1 sequence (P54762 18-984): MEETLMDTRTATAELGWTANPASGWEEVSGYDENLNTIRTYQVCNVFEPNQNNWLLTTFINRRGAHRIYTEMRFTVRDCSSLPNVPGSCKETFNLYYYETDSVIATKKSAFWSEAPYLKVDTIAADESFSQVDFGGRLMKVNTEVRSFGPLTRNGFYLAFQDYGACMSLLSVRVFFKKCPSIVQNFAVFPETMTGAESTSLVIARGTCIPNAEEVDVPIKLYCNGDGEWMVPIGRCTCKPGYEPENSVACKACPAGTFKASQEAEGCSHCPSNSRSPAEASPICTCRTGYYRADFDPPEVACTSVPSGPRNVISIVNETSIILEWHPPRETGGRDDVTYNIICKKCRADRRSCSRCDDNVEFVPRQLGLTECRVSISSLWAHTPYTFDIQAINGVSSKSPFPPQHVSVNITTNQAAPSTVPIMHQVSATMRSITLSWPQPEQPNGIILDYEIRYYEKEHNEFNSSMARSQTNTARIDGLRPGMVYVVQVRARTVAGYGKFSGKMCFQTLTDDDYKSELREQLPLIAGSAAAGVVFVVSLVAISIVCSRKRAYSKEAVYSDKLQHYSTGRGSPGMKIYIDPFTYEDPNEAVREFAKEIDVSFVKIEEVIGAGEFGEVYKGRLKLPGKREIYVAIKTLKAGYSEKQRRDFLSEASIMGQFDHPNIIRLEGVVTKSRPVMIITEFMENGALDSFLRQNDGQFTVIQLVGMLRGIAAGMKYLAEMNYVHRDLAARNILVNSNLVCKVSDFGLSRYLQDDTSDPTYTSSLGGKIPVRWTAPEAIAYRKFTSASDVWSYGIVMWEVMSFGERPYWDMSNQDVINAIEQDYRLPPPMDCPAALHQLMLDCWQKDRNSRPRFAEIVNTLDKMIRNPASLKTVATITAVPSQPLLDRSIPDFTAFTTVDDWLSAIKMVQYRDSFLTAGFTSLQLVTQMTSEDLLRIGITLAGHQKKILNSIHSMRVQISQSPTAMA

[3] = biological target: panel of 255 wild-type kinases (Homo sapiens, UniProt Q96SB4); conditions: kinase SRPK1, 1 µmol/L single concentration, cited from earlier work
[4] = biological target: T2, panel of 255 wild-type kinases (Homo sapiens, UniProt Q12851); conditions: kinase MAP4K2, 1 µmol/L single concentration, cited from earlier work
T2 sequence (Q12851 1-820): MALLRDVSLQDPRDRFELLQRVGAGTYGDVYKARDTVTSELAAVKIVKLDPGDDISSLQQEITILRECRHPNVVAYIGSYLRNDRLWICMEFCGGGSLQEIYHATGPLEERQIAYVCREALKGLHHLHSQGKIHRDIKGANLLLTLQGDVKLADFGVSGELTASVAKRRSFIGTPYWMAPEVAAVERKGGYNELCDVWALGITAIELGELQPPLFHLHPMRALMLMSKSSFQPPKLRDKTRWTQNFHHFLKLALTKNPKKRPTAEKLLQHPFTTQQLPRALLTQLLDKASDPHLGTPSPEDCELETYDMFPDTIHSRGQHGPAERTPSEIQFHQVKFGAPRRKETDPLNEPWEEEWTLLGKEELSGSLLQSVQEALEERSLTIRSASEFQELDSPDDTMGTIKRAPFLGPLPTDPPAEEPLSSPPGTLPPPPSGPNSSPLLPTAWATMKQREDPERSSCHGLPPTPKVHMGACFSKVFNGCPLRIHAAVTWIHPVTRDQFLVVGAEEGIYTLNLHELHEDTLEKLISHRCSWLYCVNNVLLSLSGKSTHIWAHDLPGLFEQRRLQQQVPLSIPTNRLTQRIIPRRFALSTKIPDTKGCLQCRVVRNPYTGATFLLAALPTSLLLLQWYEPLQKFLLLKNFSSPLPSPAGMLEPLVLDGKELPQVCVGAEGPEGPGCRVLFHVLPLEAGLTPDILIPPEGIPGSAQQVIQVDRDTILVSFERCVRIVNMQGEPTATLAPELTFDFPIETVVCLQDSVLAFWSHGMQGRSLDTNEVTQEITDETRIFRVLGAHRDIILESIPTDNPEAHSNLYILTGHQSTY

[5] = biological target: panel of 255 wild-type kinases (Homo sapiens, UniProt P31751); conditions: AKT2 kinase assay, 1 µmol/L single concentration, cited from earlier work
[6] = test system: panel of 255 wild-type kinases; conditions: cited from earlier work
[7] = biological target: panel of 255 wild-type kinases (Homo sapiens, UniProt Q13554); conditions: CaMK2β kinase assay, 1 µmol/L single concentration, cited from earlier work
[8] = biological target: panel of 255 wild-type kinases (Homo sapiens, UniProt P17612); conditions: kinase PKACα, 1 µmol/L single concentration, cited from earlier work
[9] = biological target: panel of 255 wild-type kinases (Homo sapiens, UniProt O00311); conditions: CDC7/ASK kinase assay, 1 µmol/L single concentration, cited from earlier work
[10] = ref DOI: 10.1158/1535-7163.MCT-18-0877
[11] = ref DOI: 10.1371/journal.pone.0092146
[12] = kinase LYNb, 1 µmol/L single concentration, ref DOI: 10.1371/journal.pone.0092146
[13] = kinase PKCβ2, 1 µmol/L single concentration, ref DOI: 10.1371/journal.pone.0092146
[14] = kinase SRM, 1 µmol/L single concentration, ref DOI: 10.1371/journal.pone.0092146

Row | Compound | %-inhibition, p70S6K [1, 10] [%] | %-inhibition at 1 µmol/L, EPHB1 [2, 10] [%] | %-inhibition at 1 µmol/L, SRPK1 [3, 10] [%] | %-inhibition at 1 µmol/L, MAP4K2 [4, 10] [%] | %-inhibition AKT2 [5, 10] [%] | %-inhibition CaMK2β [7, 10] [%] | %-inhibition at 1 µmol/L, PKACα [8, 10] [%] | %-inhibition CDC7/ASK [9, 10] [%] | %-inhibition, p70S6K [1, 11] [%] | %-inhibition at 1 µmol/L, EPHB1 [2, 11] [%] | %-inhibition at 1 µmol/L, SRPK1 [3, 11] [%] | %-inhibition at 1 µmol/L, MAP4K2 [4, 11] [%] | %-inhibition AKT2 [5, 11] [%] | %-inhibition at 1 µmol/L, LYNb [6, 12] [%] | %-inhibition at 1 µmol/L, PKCβ2 [6, 13] [%] | %-inhibition at 1 µmol/L, SRM [6, 14] [%] | %-inhibition CaMK2β [7, 11] [%] | %-inhibition at 1 µmol/L, PKACα [8, 11] [%] | %-inhibition CDC7/ASK [9, 11] [%] | other results
1 | C=CC(=O)N1CCC[C@@H](n2nc(-c3ccc(Oc4ccccc4)cc3)c3c(N)ncnc32)C1 [ibrutinib] | 19 | 12 | 1.2 | -4.43 | -3 | -2.56 | -11 | -1 |  |  |  |  |  |  |  |  |  |  |  | %-inhibition at 1 µmol/L, FYN [isoform b] ([6]; kinase FYN [isoform b], 1 µmol/L single concentration, ref DOI: 10.1158/1535-7163.MCT-18-0877): 87%; %-inhibition at 1 µmol/L, LYNb ([6]; kinase LYNb, 1 µmol/L single concentration, ref DOI: 10.1158/1535-7163.MCT-18-0877): 100%; %-inhibition at 1 µmol/L, PKCβ2 ([6]; kinase PKCβ2, 1 µmol/L single concentration, ref DOI: 10.1158/1535-7163.MCT-18-0877): 1.78%; %-inhibition at 1 µmol/L, SRM ([6]; kinase SRM, 1 µmol/L single concentration, ref DOI: 10.1158/1535-7163.MCT-18-0877): 102%
2 | C=CC(=O)Nc1cc(Nc2nccc(-c3cn(C)c4ccccc34)n2)c(OC)cc1N(C)CCN(C)C [osimertinib] | 21 | 13 | -9 | -0.698 | 2.2 | 5 | -11 | 1.64 |  |  |  |  |  |  |  |  |  |  |  | %-inhibition at 1 µmol/L, FYN [isoform b] [6]: 14%; %-inhibition at 1 µmol/L, LYNb [6]: 10%; %-inhibition at 1 µmol/L, PKCβ2 [6]: 17%; %-inhibition at 1 µmol/L, SRM [6]: 32%
3 | CC(=O)Nc1cccc(-n2c(=O)n(C3CC3)c(=O)c3c(Nc4ccc(I)cc4F)n(C)c(=O)c(C)c32)c1 [trametinib] |  |  |  |  |  |  |  |  | -1.39 | -8 | -0.0691 | 4 | -8 | -2.58 | -1.58 | -4 | 0.738 | 8.52 | -8 | 
4 | CCCS(=O)(=O)Nc1ccc(F)c(C(=O)c2c[nH]c3ncc(-c4ccc(Cl)cc4)cc23)c1F [vemurafenib] |  |  |  |  |  |  |  |  | 9 | -1.63 | 2 | 43 | -3 | 62 | -3 | 102 | -6.64 | -4 | -7 | 
